Measurements published in patent US20220313715A1, “PHARMACEUTICAL COMPOSITION, FOR PREVENTING OR TREATING HEPATIC FIBROSIS, COMPRISING 8-OHDG” (GIL MEDICAL CENTER, priority 2016, published 2022).

How the values were obtained:
NOX1 [1] = test: Immunofluorescent staining of NOX1 in liver tissue of liver fibrosis animal model; assay type: in vivo, Sprague-Dawley rats; settings: BDL rats, 60 mg/kg/day for 3 weeks vs Experimental Group 1, FIG. 3c
Description: (§1) 250 g to 300 g male Sprague-Dawley rats were subject to bile duct ligation (BDL) and atresia of bile duct to prepare liver fibrosis animal models. Six of the animal models were laparotomized, and the proximal and distal bile ducts were ligated and then cut in the middle to separate the bile duct. The animal models were then sutured and allowed to recover to be used for Experimental Group 1. Six animal models treated in the same manner as experimental group 1 were sutured and administered with 8-OHdG in the amount of 60 mg/kg/day for 3 weeks to be used for Experimental Group 2. The animal models of each of the control and experimental groups were sutured and raised for 3 weeks, followed by taking blood and liver tissues therefrom to be used for subsequent experimental procedures.

collagen = test: Picro Sirius Red staining of collagen in liver tissue of liver fibrosis animal model; assay type: in vivo, Sprague-Dawley rats; settings: BDL rats, 60 mg/kg/day for 3 weeks vs Experimental Group 1; Picro Sirius Red stain, ImageJ; FIG. 3a
Description: as §1

RAC1 = RAC1 (Homo sapiens, UniProt P63000); settings: binds to RAC1-GTP through competition with GTP; leads to inhibition of activity of NOX complex; cited from earlier work
α-SMA [2] = test: Western blot of α-SMA protein in liver tissue of liver fibrosis animal model; assay type: in vivo, Sprague-Dawley rats; settings: BDL rats, 60 mg/kg/day for 3 weeks vs Experimental Group 1, GAPDH internal control, FIG. 3b
Description: as §1, with “procedures. […] GAPDH protein was used as an internal control.” for “procedures.”

hydroxyproline = test: Hydroxyproline level in liver tissue of bile duct ligation liver fibrosis animal model; assay type: in vivo, Sprague-Dawley rats; settings: BDL rats, 8-OHdG 60 mg/kg/day for 3 weeks (Experimental Group 2) vs BDL only (Experimental Group 1); absorbance at 560 nm; FIG. 1
Description: as §1, with “models. […]” for “models.”

α-SMA [3] = test: Immunofluorescent staining of α-SMA (hepatic stellate cell activity index) in liver tissue of liver fibrosis animal model; assay type: in vivo, Sprague-Dawley rats; settings: BDL rats, 60 mg/kg/day for 3 weeks vs Experimental Group 1; immunofluorescent co-staining with NOX1 (FIG. 3c) or NOX2 (FIG. 3d)
Description: as §1

TGF-β = test: qPCR mRNA level of TGF-β in liver tissue of liver fibrosis animal model; assay type: in vivo, Sprague-Dawley rats; settings: BDL rats, 60 mg/kg/day for 3 weeks vs Experimental Group 1, GAPDH internal control, FIG. 2a
Description: as §1, with “procedures. […]” for “procedures.”

TIMP-1 = test: qPCR mRNA level of TIMP-1 in liver tissue of liver fibrosis animal model; assay type: in vivo, Sprague-Dawley rats; settings: BDL rats, 60 mg/kg/day for 3 weeks vs Experimental Group 1, FIG. 2b
Description: as §1, with “procedures. […]” for “procedures.”

Collagen Iα1 = test: qPCR mRNA level of collagen in liver tissue of liver fibrosis animal model; assay type: in vivo, Sprague-Dawley rats; settings: BDL rats, 60 mg/kg/day for 3 weeks vs Experimental Group 1, FIG. 2c
Description: as §1, with “procedures. […]” for “procedures.”

NOX1 [4] = test: qPCR mRNA level of NOX1 in liver tissue of liver fibrosis animal model; assay type: in vivo, Sprague-Dawley rats; settings: BDL rats, 60 mg/kg/day for 3 weeks vs Experimental Group 1, FIG. 2e
Description: as §1, with “procedures. […]” for “procedures.”

NOX2 [5] = test: Immunofluorescent staining of NOX2 in liver tissue of liver fibrosis animal model; assay type: in vivo, Sprague-Dawley rats; settings: BDL rats, 60 mg/kg/day for 3 weeks vs Experimental Group 1, FIG. 3d
Description: as §1

α-SMA [6] = test: qPCR mRNA level of α-SMA in liver tissue of liver fibrosis animal model; assay type: in vivo, Sprague-Dawley rats; settings: BDL rats, 60 mg/kg/day for 3 weeks vs Experimental Group 1, FIG. 2d
Description: as §1, with “procedures. […]” for “procedures.”

NOX2 [7] = test: qPCR mRNA level of NOX2 in liver tissue of liver fibrosis animal model; assay type: in vivo, Sprague-Dawley rats; settings: BDL rats, 60 mg/kg/day for 3 weeks vs Experimental Group 1, FIG. 2f
Description: as §1, with “procedures. […]” for “procedures.”

## Nc1nc2c(nc(O)n2[C@H]2C[C@H](O)[C@@H](CO)O2)c(=O)[nH]1 [8-OHdG, 8-hydroxydeoxyguanosine]
NOX1 [1]
  protein level of NOX1 in the liver tissue: reduced
collagen
  protein level of collagen in the liver tissue: reduced
RAC1
  RAC1 activation: inhibits
α-SMA [2]
  protein level of α-SMA in the liver tissue: reduced
hydroxyproline
  level of hydroxyproline in the liver tissue: reduced
α-SMA [3]
  protein level of α-SMA used as a hepatic stellate cell activity index: reduced
TGF-β
  mRNA level of TGF-β in the liver tissue: reduced
TIMP-1
  mRNA level of TIMP-1 in the liver tissue: reduced
Collagen Iα1
  mRNA level of collagen in the liver tissue: reduced
NOX1 [4]
  mRNA level of NOX1 in the liver tissue: reduced
NOX2 [5]
  protein level of NOX2 in the liver tissue: reduced
α-SMA [6]
  mRNA level of α-SMA in the liver tissue: reduced
NOX2 [7]
  mRNA level of NOX2 in the liver tissue: reduced
